Laboratory results as given in the NIST ThermoML archive (doi:10.1016/j.fluid.2016.02.030).
Numbers after ± are expanded uncertainties.

Test: osmotic coefficient (dimensionless); mn = molality of the nth substance listed, in mol/kg
Settings: 308.15 K, Liquid, omometer

OC[C@@H](O)[C@@H](O[C@H]1O[C@H](CO)[C@@H](O)[C@H](O)[C@H]1O)[C@H](O)[C@@H](O)CO [4-O-α-D-glucopyranosyl-D-glucitol] + O
Settings | osmotic coefficient
m1 = 0.0292 | 0.9903 ± 0.002
m1 = 0.1187 | 0.9976 ± 0.002
m1 = 0.219 | 1.012 ± 0.002
m1 = 0.3226 | 1.019 ± 0.0021
m1 = 0.4282 | 1.028 ± 0.0022
m1 = 0.5127 | 1.031 ± 0.0023
m1 = 0.5925 | 1.032 ± 0.0023
m1 = 0.774 | 1.049 ± 0.0026
m1 = 0.9158 | 1.06 ± 0.0029
m1 = 1.054 | 1.067 ± 0.0031
m1 = 1.261 | 1.081 ± 0.0035
m1 = 1.918 | 1.151 ± 0.0058
m1 = 2.645 | 1.217 ± 0.0084
m1 = 3.591 | 1.272 ± 0.011

O=C[C@H](O)[C@@H](O)[C@H](O[C@@H]1O[C@H](CO)[C@H](O)[C@H](O)[C@H]1O)[C@H](O)CO [4-O-β-D-galactopyranosyl-D-glucose] + O
Settings | osmotic coefficient
m1 = 0.014 | 0.9946 ± 0.002
m1 = 0.0578 | 1.011 ± 0.002
m1 = 0.1025 | 1.022 ± 0.0022
m1 = 0.1286 | 1.03 ± 0.0023
m1 = 0.1795 | 1.046 ± 0.0026
m1 = 0.2313 | 1.058 ± 0.0029
m1 = 0.2909 | 1.065 ± 0.003
m1 = 0.3217 | 1.067 ± 0.0031

O=C[C@H](O)[C@@H](O)[C@@H](O)[C@H](O)CO [(+)-galactose] + O
Settings | osmotic coefficient
m1 = 0.0558 | 0.9999 ± 0.002
m1 = 0.1149 | 1.001 ± 0.002
m1 = 0.1727 | 1.004 ± 0.002
m1 = 0.2306 | 1.003 ± 0.002
m1 = 0.2878 | 1.004 ± 0.002
m1 = 0.3548 | 1.006 ± 0.002
m1 = 0.4098 | 1.006 ± 0.002
m1 = 0.4829 | 1.007 ± 0.002
m1 = 0.5526 | 1.008 ± 0.002
m1 = 0.6174 | 1.008 ± 0.002
m1 = 0.6818 | 1.009 ± 0.002
m1 = 0.7847 | 1.01 ± 0.002
m1 = 0.8958 | 1.011 ± 0.002
m1 = 1.009 | 1.012 ± 0.002
m1 = 1.138 | 1.013 ± 0.0021
m1 = 1.308 | 1.016 ± 0.0021
m1 = 1.85 | 1.025 ± 0.0022
m1 = 2.61 | 1.045 ± 0.0026

O=C(CO)[C@@H](O)[C@H](O)[C@H](O)CO [D-fructose] + O
Settings | osmotic coefficient
m1 = 0.0559 | 0.9986 ± 0.002
m1 = 0.1125 | 0.9958 ± 0.002
m1 = 0.1714 | 0.9944 ± 0.002
m1 = 0.2296 | 0.9949 ± 0.002
m1 = 0.2923 | 0.9947 ± 0.002
m1 = 0.3466 | 0.9945 ± 0.002
m1 = 0.4185 | 0.9946 ± 0.002
m1 = 0.4792 | 0.9949 ± 0.002
m1 = 0.5468 | 0.9947 ± 0.002
m1 = 0.614 | 0.9951 ± 0.002
m1 = 0.6925 | 0.9951 ± 0.002
m1 = 0.7872 | 0.9955 ± 0.002
m1 = 0.9018 | 0.995 ± 0.002
m1 = 1.022 | 0.9947 ± 0.002
m1 = 1.139 | 0.9949 ± 0.002
m1 = 1.266 | 0.9949 ± 0.002
m1 = 1.741 | 0.9972 ± 0.002
m1 = 2.401 | 1.006 ± 0.002
m1 = 2.95 | 1.014 ± 0.0021
m1 = 3.625 | 1.027 ± 0.0022
m1 = 5.424 | 1.069 ± 0.0031

O=C[C@H](O)[C@@H](O)[C@H](O)[C@H](O)CO [D-glucose] + O
Settings | osmotic coefficient
m1 = 0.0557 | 1.002 ± 0.002
m1 = 0.1126 | 1.005 ± 0.002
m1 = 0.1685 | 1.004 ± 0.002
m1 = 0.2236 | 1.004 ± 0.002
m1 = 0.2913 | 1.004 ± 0.002
m1 = 0.3539 | 1.005 ± 0.002
m1 = 0.4081 | 1.006 ± 0.002
m1 = 0.4775 | 1.006 ± 0.002
m1 = 0.5382 | 1.006 ± 0.002
m1 = 0.5708 | 1.008 ± 0.002
m1 = 0.6209 | 1.008 ± 0.002
m1 = 0.6815 | 1.008 ± 0.002
m1 = 0.7347 | 1.009 ± 0.002
m1 = 0.7963 | 1.009 ± 0.002
m1 = 0.9085 | 1.01 ± 0.002
m1 = 1.019 | 1.012 ± 0.002
m1 = 1.109 | 1.014 ± 0.0021
m1 = 1.215 | 1.015 ± 0.0021
m1 = 1.323 | 1.017 ± 0.0021
m1 = 1.569 | 1.022 ± 0.0022
m1 = 1.841 | 1.03 ± 0.0023
m1 = 2.386 | 1.044 ± 0.0025
m1 = 2.945 | 1.061 ± 0.0029
m1 = 3.626 | 1.078 ± 0.0034
m1 = 4.847 | 1.11 ± 0.0044

O=C[C@@H](O)[C@@H](O)[C@H](O)[C@H](O)CO [D-mannose] + O
Settings | osmotic coefficient
m1 = 0.1128 | 0.9933 ± 0.002
m1 = 0.2298 | 0.989 ± 0.002
m1 = 0.3533 | 0.984 ± 0.0021
m1 = 0.4798 | 0.9828 ± 0.0021
m1 = 0.6097 | 0.9824 ± 0.0021
m1 = 0.7659 | 0.9832 ± 0.0021
m1 = 0.9375 | 0.9836 ± 0.0021
m1 = 1.117 | 0.9842 ± 0.0021
m1 = 1.304 | 0.9852 ± 0.0021
m1 = 1.829 | 0.9903 ± 0.002
m1 = 2.544 | 0.9978 ± 0.002
m1 = 3.659 | 1.017 ± 0.0021

OC[C@H]1O[C@H](OC[C@H]2O[C@H](O[C@]3(CO)O[C@H](CO)[C@@H](O)[C@@H]3O)[C@H](O)[C@@H](O)[C@@H]2O)[C@H](O)[C@@H](O)[C@H]1O [D-raffinose] + O
Settings | osmotic coefficient
m1 = 0.0343 | 1.002 ± 0.002
m1 = 0.1059 | 1.025 ± 0.0022
m1 = 0.1837 | 1.04 ± 0.0025
m1 = 0.2667 | 1.062 ± 0.003
m1 = 0.3581 | 1.083 ± 0.0036
m1 = 0.4515 | 1.117 ± 0.0046
m1 = 0.4902 | 1.134 ± 0.0052
m1 = 0.6205 | 1.168 ± 0.0065
